Test results: ChEMBL document CHEMBL1201862, “PubChem BioAssay data set” (2004)
Calls of active or inactive are those of the source. For most assays here, no stated cut-off is given here; in the data, actives have a measured EC50 and inactives only a lower limit.

Tests used:
[1] = molecular target: T1, Microphthalmia-associated transcription factor (Homo sapiens, UniProt O75030); assay: TRPM1 promoter luciferase signal decrease, dose response, MITF inhibitor project, cell-based, SK-MEL-5, cherry-picked, set 3 (AID 493073); format: functional
T1 sequence (O75030 whole entry): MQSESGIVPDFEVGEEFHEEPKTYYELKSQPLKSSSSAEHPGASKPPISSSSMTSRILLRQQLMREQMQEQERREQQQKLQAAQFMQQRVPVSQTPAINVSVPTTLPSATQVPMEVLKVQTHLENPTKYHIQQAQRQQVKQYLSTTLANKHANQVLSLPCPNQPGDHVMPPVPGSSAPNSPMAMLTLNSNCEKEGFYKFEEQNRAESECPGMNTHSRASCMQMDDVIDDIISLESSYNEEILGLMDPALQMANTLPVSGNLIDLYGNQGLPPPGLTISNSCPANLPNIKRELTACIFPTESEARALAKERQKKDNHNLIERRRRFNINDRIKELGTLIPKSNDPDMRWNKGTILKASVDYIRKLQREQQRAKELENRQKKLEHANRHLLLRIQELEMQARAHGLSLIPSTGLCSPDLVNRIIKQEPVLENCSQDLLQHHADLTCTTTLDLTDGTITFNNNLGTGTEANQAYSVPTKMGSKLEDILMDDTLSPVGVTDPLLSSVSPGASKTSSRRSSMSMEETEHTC

[2] = cytotoxicity in HEK-293T cells, dose response, cytotoxicity control for TCR NF-kB inhibitor project, luminescence, T-cell screen hits (AID 489026); format: functional, cell-based;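 further: cells exposed to compound about 14 hours before the viability readout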
cells [3] = format: functional, cell-based
cells [4] = format: functional, cell-based; remark: listed apart in the source
[5] = THP-1 cell cytotoxicity, dose response, cytotoxicity control for non-replicating M. tuberculosis project (AID 489025); format: functional
cells [6] = format: functional
[7] = molecular target: Heat shock protein HSP 90-alpha (Homo sapiens, UniProt P07900); format: functional, organism-based
[8] = Luminescence Cell-Based Dose Confirmation HTS to Identify Activators of 5'UTR Stem-Loop Driven Alpha-Synuclein mRNA Translation in H4 Neuroglioblastoma Cells. [Related pubchem assays: 1829 (Project Summary), 1814 (Primary HTS)]; format: functional
[9] = Luminescence Cell-Based Dose Response HTS to Identify Activators of Luciferase Translation or Activity in H4 […] Cells. [Related pubchem assays: 1829 (Project Summary), 1814 (Primary HTS)]; format: functional
[10] = molecular target: T2, Zinc finger protein mex-5 (Caenorhabditis elegans, UniProt Q9XUB2); assay: MEX-5/TCR-2 RNA interaction inhibitors, dose response, biochemical, C. elegans, fluorescence polarization (AID 1960)
T2 sequence (Q9XUB2 whole entry): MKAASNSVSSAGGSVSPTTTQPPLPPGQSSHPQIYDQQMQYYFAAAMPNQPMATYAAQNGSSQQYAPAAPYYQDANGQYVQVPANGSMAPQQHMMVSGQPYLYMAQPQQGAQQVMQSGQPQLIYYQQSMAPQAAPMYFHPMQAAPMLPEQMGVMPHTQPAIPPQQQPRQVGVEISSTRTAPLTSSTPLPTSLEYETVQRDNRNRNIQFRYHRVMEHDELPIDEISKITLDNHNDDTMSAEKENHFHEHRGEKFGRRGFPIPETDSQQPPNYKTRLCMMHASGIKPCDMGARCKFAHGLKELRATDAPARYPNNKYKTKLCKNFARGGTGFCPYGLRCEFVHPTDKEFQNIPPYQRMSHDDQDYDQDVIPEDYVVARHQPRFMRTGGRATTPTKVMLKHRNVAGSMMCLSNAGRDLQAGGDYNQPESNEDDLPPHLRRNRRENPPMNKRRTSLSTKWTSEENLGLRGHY

H4 = assay: Luminescence Cell-Based Dose Response HTS to Identify Activators of 5'UTR Stem-Loop Driven Prion Protein mRNA Translation in H4 Neuroglioblastoma Cells. [Related pubchem assays: 1829 (Project Summary), 1814 (Primary HTS)]; format: functional; settings: Homo sapiens
[11] = molecular target: T3, RNA-binding protein pos-1 (Caenorhabditis elegans, UniProt G5EF15); assay: inhibitors of POS-1/mex-3 RNA binding, dose response, biochemical, fluorescence polarization (AID 1964);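 further: purified POS-1 fused to maltose binding protein made in E. coli; potency of compounds blocking POS-1 binding to fluorescent RNA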
T3 sequence (G5EF15 whole entry): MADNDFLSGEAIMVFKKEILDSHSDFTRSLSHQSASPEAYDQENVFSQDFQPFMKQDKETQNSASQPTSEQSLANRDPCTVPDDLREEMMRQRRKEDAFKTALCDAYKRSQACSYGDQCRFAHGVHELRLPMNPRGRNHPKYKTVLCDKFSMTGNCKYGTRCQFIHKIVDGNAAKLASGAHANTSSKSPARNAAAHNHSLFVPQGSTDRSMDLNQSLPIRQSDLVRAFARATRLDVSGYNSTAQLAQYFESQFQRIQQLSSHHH

[12] = cytotoxicity toward DRD oncogenic fibroblasts, dose response, cell-based, non-viral oncogenic, luminescence (AID 1934); format: functional; settings: Homo sapiens
BJ [13] = assay: cells; format: functional, cell-based; settings: Homo sapiens
BJ [14] = assay: cytotoxicity toward BJ-TERT fibroblasts, dose response, cell-based, RAS-independent, luminescence (AID 1933); format: functional; settings: Homo sapiens
BJ [15] = assay: cytotoxicity toward BJ-TERT-LT-ST fibroblasts, dose response, cell-based, RAS-independent, luminescence (AID 1935); format: functional; settings: Homo sapiens;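 further: BJ fibroblasts immortalized with TERT plus LT and ST oncogenes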
Cytochrome P450 3A4 = Cytochrome P450 3A4 (Homo sapiens, UniProt P08684); settings: Potency;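 further: confirmatory qHTS run detecting inhibitors and substrates of CYP3A4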
[16] = cytotoxicity toward NIH3T3 fibroblasts, dose response, counter-screen, cell-based, ATP luminescence, mouse fibroblasts (AID 2010); format: functional;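 further: cells exposed to compound for about 90 hours before reading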
[17] = molecular target: T4, Ubiquitin-conjugating enzyme E2 N (Homo sapiens, UniProt P61088); format: functional;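 further: Dose-response confirmation in a TR-FRET assay detecting UBC13-driven polyubiquitin chain formation, inhibition measured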
T4 sequence (P61088 whole entry): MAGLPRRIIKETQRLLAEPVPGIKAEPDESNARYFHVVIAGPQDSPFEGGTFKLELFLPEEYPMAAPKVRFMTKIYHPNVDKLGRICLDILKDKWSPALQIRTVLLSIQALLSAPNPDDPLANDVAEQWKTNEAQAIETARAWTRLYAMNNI

[18] = inhibitors of intracellular T. cruzi replication, confirmation, NIH3T3 host cells, beta-gal luminescence (AID 2044); format: functional, cell-based;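 further: intracellular parasites grown in NIH/3T3 mouse fibroblasts as host cells; luminescent beta-galactosidase reporter signal from transgenic T. cruzi replicating inside host cells; inhibitors lower the luminescence signal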

Cytochrome P450 3A4, sequence (P08684 whole entry): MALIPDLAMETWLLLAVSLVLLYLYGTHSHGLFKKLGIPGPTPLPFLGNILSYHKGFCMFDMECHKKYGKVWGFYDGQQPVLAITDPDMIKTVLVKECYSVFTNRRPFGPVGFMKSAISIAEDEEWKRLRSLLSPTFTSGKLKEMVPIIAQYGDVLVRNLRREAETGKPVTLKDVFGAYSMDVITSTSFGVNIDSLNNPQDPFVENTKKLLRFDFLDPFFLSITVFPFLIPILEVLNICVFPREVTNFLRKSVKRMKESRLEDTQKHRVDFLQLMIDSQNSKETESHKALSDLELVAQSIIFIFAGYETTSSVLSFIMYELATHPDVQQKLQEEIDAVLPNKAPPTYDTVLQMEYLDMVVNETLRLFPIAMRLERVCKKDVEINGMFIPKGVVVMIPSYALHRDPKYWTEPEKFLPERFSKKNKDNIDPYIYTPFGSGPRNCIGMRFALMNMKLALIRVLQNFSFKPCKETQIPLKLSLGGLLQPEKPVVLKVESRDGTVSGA

**Q.** Which AC50 [1] does the source give for COCCCn1nc2c3c(ccc2c1O)C(=O)c1ccccc1C3=O here?
**A.** 8.86 µM (active)

**Q.** With O=C(Nc1ccc(S(=O)(=O)Nc2ccc(F)cc2)cc1)c1ccc(CN2CCOCC2)cc1 as the molecule, how does the IC50 [2] read?
**A.** > 80 µM (inactive)

**Q.** Which results are given for COc1ccc(OC)c(NC(=O)CCc2nnc3ccc(NCc4ccco4)nn23)c1?
**A.** EC50 (cells [3]): > 350 µM (not active); EC50 (cells [4]): > 350 µM (not active)

**Q.** Which results are given for CN1CC(=O)N=C1NC(=O)C12CC3CC(CC(C3)C1)C2?
**A.** CC50 [5]: > 40 µM (active); IC50 (cells [6]): 23.9 µM (active)

**Q.** For COC(=O)c1ccc(N2C(=O)CC(N3CCC(O)(c4ccc(Br)cc4)CC3)C2=O)cc1 (stereo unspecified), which AC50 [7] is on record?
**A.** 2.85 µM (active)

**Q.** For O=C(/C=C/N1CCOCC1)c1ccc(-c2ccccc2)cc1, which EC50 [8] is on record?
**A.** 3.53 µM (active)

**Q.** What about the EC50 [9] of the same molecule?
**A.** 36.8 µM (active)

**Q.** What about the EC50 [10] of the same molecule?
**A.** > 300 µM (not active)

**Q.** What about the AC50 [7] of the same molecule?
**A.** 1.68 µM (active)

**Q.** What about the EC50 (H4) of the same molecule?
**A.** 57.7 µM (active)

**Q.** What about the EC50 [11] of the same molecule?
**A.** > 300 µM (not active)

**Q.** For CC(Oc1ccc(Cl)cc1Cl)C(=O)Nc1ccncc1 (stereo unspecified), which IC50 [2] is on record?
**A.** > 80 µM (inactive)

**Q.** And the EC50 [12]?
**A.** > 150 µM (not active)

**Q.** What about the EC50 (BJ [13]) of the same molecule?
**A.** 23.9 µM (active)

**Q.** What about the EC50 (BJ [14]) of the same molecule?
**A.** > 150 µM (not active)

**Q.** And the EC50 (BJ [15])?
**A.** > 150 µM (not active)

**Q.** Which EC50 (cells [3]) does the source give for COc1ccccc1N1CCN(CCCNC(=O)C2CCCN(c3ncnc4c3nc3n4CCCCC3)C2)CC1 (stereo unspecified) here?
**A.** > 350 µM (not active)

**Q.** And the EC50 (cells [4])?
**A.** > 350 µM (not active)

**Q.** With NC(=S)NNC(=O)c1cc(C(F)(F)F)cc(C(F)(F)F)c1 as the molecule, how does the EC50 (cells [3]) read?
**A.** > 350 µM (not active)

**Q.** And the EC50 (cells [4])?
**A.** > 350 µM (not active)

**Q.** For COc1ccc(-c2nnc(SCC(=O)Oc3ccc(C)cc3)o2)cc1, which AC50 [7] is on record?
**A.** 2.53 µM (active)

**Q.** For COCCNc1nc(C)nc2c1nc(-c1ccccc1)n2CCCN1CCCCC1C (stereo unspecified), which AC50 (Cytochrome P450 3A4) is on record?
**A.** 3.98 µM (inconclusive)

**Q.** With CCCCCCC(=O)N(O)C1CC(=O)N(c2ccc(Cl)cc2)C1=O (stereo unspecified) as the molecule, how does the AC50 [7] read?
**A.** 1.64 µM (active)

**Q.** For CC1(C)CC[C@]2(C(=O)O)CC[C@]3(C)C(=CCC4[C@@]5(C)CC[C@H](O)C(C)(C)C5[C@H](O)C[C@]43C)C2C1 (stereo partly specified), which AC50 (Cytochrome P450 3A4) is on record?
**A.** 25.1 µM (inconclusive)

**Q.** With CC1(C)CCC2(C(=O)O)CC[C@]3(C)C(=CCC4[C@]5(C)CCC(O)C(C)(C)C5C(O)C[C@]43C)C2C1 (stereo partly specified) as the molecule, how does the AC50 (Cytochrome P450 3A4) read?
**A.** 2.51 µM (inconclusive)

**Q.** Which EC50 [16] does the source give for COc1cc(-c2[nH]c(C(=O)NC3CCN(Cc4ccccc4)CC3)cc3c4ccccc4nc2-3)cc(OC)c1OC here?
**A.** 5.61 µM (active)

**Q.** And the IC50 [17]?
**A.** > 20 µM (inactive)

**Q.** What about the EC50 [18] of the same molecule?
**A.** 0.125 µM (active)

**Q.** Which AC50 [1] does the source give for O=S1(=O)CCC(NC(=S)SCc2ccccc2Br)C1 (stereo unspecified) here?
**A.** 25.6 µM (active)
